Patent publication EP1609872A1, “A method for selecting a gene involved in nisin resistance in bacteria” (Stichting voor de Technische Wetenschappen, priority 2004, dated 2005)

Tests used:
M. flavus Nis^R = test: Determination of the Minimal Inhibitory Concentration (Example 2); assay type: cell-based, Micrococcus flavus; conditions: cross-resistance of the Nis^R strains
Experimental: M. flavus and L. lactis were grown overnight at their optimum growth conditions. The Nis^R variants were grown in the presence of nisin (3 mg/L). The MIC values were estimated essentially as described before (23).

L. lactis IL1403 Nis^R = test: MIC determination (nisin sensitivity assay); assay type: cell-based, Lactococcus lactis
Experimental: Generation of nisin-resistant variants of L. lactis IL1403― A nisin stock solution was derived from nisaplin, (2.5% nisin, Aplin and Barrett, Danisco, Denmark) as described earlier (44). Nisin-resistant isogenic variants of L. lactis IL1403 were obtained by growing the strain in broth, while stepwise increasing the nisin concentration, as described before (29).
Nisin sensitivity assays― Sensitivity to nisin was determined essentially as described before (32) for the strains L. lactis NZ9000, L. lactis NZ9000 ΔgalAMK, L. lactis MG1363 and L. lactis MG1363 ΔdltD (16). For the strains of L. lactis NZ9000 (pNZ8048) and L. lactis NZ9000 (pJK1), the cells were diluted 50-fold in fresh medium. At an OD600 of 0.2 the cells of both cultures were induced with 4 µg/L nisin for 2 h. Nisin induction of PnisA in the pNZ8048 derivatives was performed as described by de Ruyter et al. (12). Outgrowth in all wells was determined at the moment when wells containing cells without nisin had reached an OD595 of 0.8, measured in an ELISA micro titer plate reader (Spectramax plus 384, Molecular Devices, Wageningen, the Netherlands). MIC values were calculated from the lowest concentration of nisin at which growth of the test strain was inhibited.

## C=C1NC(=O)[C@@H]2NC(=O)[C@H](CC(C)C)NC(=O)[C@H](NC(=O)[C@@H]3CS[C@@H](C)[C@@H](NC(=O)[C@H](Cc4ccccc4)NC(=O)[C@@H]4NC(=O)[C@@H](N)CS[C@H]4C)C(=O)N[C@@H](CC(C)C)C(=O)N4CCC[C@H]4C(=O)NCC(=O)NCC(=O)NCC(=O)NCC(=O)N[C@@H](C(C)C)C(=O)N3)[C@H](C)SC[C@H](NC(=O)[C@H](CCC(=O)O)NC1=O)C(=O)N[C@@H]([C@@H](C)CC)C(=O)N/C=C\S[C@H]2C [Mersacidin, mersacidin]
M. flavus Nis^R
  change in MIC in the nisin resistant strain: No change
L. lactis IL1403 Nis^R
  cross-resistance: no cross-resistance
